Experiments:
DRB1*1302 (DR6w19) = DRB1*1302 (DR6w19) (Homo sapiens, UniProt P01903+P01911, A100E/A169T/K41T/L162R/M171V/P40S/Q125H/Q178H/Q39Y/Q99D/R42S/S66N/T262R/V115G/W38E/Y61H); assay: HLA class II peptide binding assay, purified HLA; settings: for DR6w19 binding data: unit not given
DRB1*0401 (DR4w4) = DRB1*0401 (DR4w4) (Homo sapiens, UniProt P01903+P01911, A100K/A169T/F76Y/I96L/K127E/L162R/M171V/N62H/P40V/Q125Y/R42H/S133A/S149N/S66Y/V115G/V209L/W38E); assay: HLA class II peptide binding assay, purified HLA; settings: unit not given
DRB5*0101 (DR2w2β2) = DRB5*0101 (DR2w2β2) (Homo sapiens, UniProt P01903+Q30154); assay: HLA class II peptide binding assay, purified HLA; settings: for DR2w2B2 binding data: unit not given
DRB1*0701 (DR7) = DRB1*0701 (DR7) (Homo sapiens, UniProt P01903+P01911, A100R/A102G/A103Q/D57E/D86V/E43K/F76Y/K127E/L162R/M171V/P40G/Q125H/Q99D/R33Q/R42Y/R54Q/S133A/S66F/T210M/V115G/Y107V/Y59L/Y89S); assay: HLA class II peptide binding assay, purified HLA; settings: unit not given
DRB1*0301 (DR3) = DRB1*0301 (DR3) (Homo sapiens, UniProt P01903+P01911, A100K/A102G/A103R/A169T/F55Y/I96L/K41T/L162R/M171V/P40S/Q125H/Q178H/Q39Y/R42S/S66N/T106N/T262R/W38E/Y61H); assay: HLA class II peptide binding assay, purified HLA; settings: unit not given
DRB1*1501 (DR2w2β1) = DRB1*1501 (DR2w2β1) (Homo sapiens, UniProt P01903+P01911); assay: HLA class II peptide binding assay, purified HLA; settings: for DR2wB1 binding data: Table XIX, DR supermotif peptides
DRB1*1101 (DR5w11) = DRB1*1101 (DR5w11) (Homo sapiens, UniProt P01903+P01911, A100R/A169T/A87E/I96F/K41T/L162R/M171V/P40S/Q125H/Q178H/Q39Y/Q99D/R42S/S66Y/T262R/V115G/W38E); assay: HLA class II peptide binding assay, purified HLA; settings: unit not given
[1] = test system: HLA-DR molecules (DR1, DR4w4, DR7, DRB5*0101, DRB1*1501, DRB1*1101, DRB1*0802, DRB1*1302); assay: DR supertype cross-reactive binding; parameters: species or system human; settings: for DR147 Binding / DR147 Cross-binding: number of DR1, DR4w4, DR7 bound; for DR147 Binding: Table XXIX; for DR147 Cross-binding: Table XXVIII; for Broad Binding (5/8): number of the 8 DR alleles bound; for No. of DR Alleles Crossbound: Table XXXI
DRB1*0101 (DR1) = DRB1*0101 (DR1) (Homo sapiens, UniProt P01903+P01911, A100R/D57E/F55L/F60I/F76Y/I96L/L162R/M171V/P40L/Q125E/R42F/V115G/Y59C); assay: HLA class II peptide binding assay, purified HLA; settings: unit not given
DRB1*0802 (DR8w2) = DRB1*0802 (DR8w2) (Homo sapiens, UniProt P01903+P01911, A100R/A103L/A169T/F76Y/H45Y/I96F/K41T/L162R/M171V/P40S/Q125H/Q178H/Q39Y/Q99D/R218S/R42G/S66Y/V115G/W38E); assay: HLA class II peptide binding assay, purified HLA; settings: for DR8w2 binding data: unit not given
[2] = Table XIX, DR supermotif peptides
[3] = Table XXa, DR 3a motif peptides

| DR6w19 binding data (DRB1*1302 (DR6w19); [2]) | DR4w4 binding data (DRB1*0401 (DR4w4); [2]) | DR2w2B2 binding data (DRB5*0101 (DR2w2β2); [2]) | DR7 binding data (DRB1*0701 (DR7); [2]) | DR3 binding data (DRB1*0301 (DR3); [2]) | DR2wB1 binding data (DRB1*1501 (DR2w2β1); unit not given) | DR5w11 binding data (DRB1*1101 (DR5w11); [2]) | DR147 Binding [1] | DR147 Cross-binding [1] | Broad Binding (5/8) [1] | DR1 binding data (DRB1*0101 (DR1); [2]) | DR8w2 binding data (DRB1*0802 (DR8w2); [2]) | No. of DR Alleles Crossbound [1] | SMILES | other results |
| --- | --- | --- | --- | --- | --- | --- | --- | --- | --- | --- | --- | --- | --- | --- |
| 0.0004 | −0.0032 | 0.0034 | 0.0310 | 0.0098 | 0.0047 | −0.0005 | 2 | 2 | 2 | 0.0630 | 0.0010 |  | CC[C@H](C)[C@H](NC(=O)[C@H](C)NC(=O)[C@@H](NC(=O)[C@@H]1CCCN1C(=O)[C@@H](NC(=O)[C@H](CCCCN)NC(=O)[C@@H](NC(=O)[C@H](CC(N)=O)NC(=O)[C@H](CCC(=O)O)NC(=O)CN)C(C)C)[C@@H](C)CC)C(C)C)C(=O)N[C@@H](CCCCN)C(=O)N[C@H](C(=O)N[C@@H](CC(C)C)C(=O)N[C@@H](CCCNC(=N)N)C(=O)N[C@@H](CCC(=O)O)C(=O)O)C(C)C |  |
| 0.0020 | 0.2300 | 0.0240 | 0.2000 | 0.0010 | 0.0029 | 0.0027 | 3 | 3 | 5 | 0.0500 | 0.0570 | 5 | CSCC[C@H](NC(=O)[C@@H](NC(=O)[C@H](Cc1ccc(O)cc1)NC(=O)[C@H](C)NC(=O)[C@H](CCC(=O)O)NC(=O)[C@@H](N)CC(=O)O)C(C)C)C(=O)N[C@@H](C)C(=O)NCC(=O)N[C@H](C(=O)NCC(=O)N[C@@H](CO)C(=O)N1CCC[C@H]1C(=O)N[C@@H](Cc1ccc(O)cc1)C(=O)N[C@H](C(=O)N[C@@H](CO)C(=O)O)C(C)C)C(C)C | IC50 (DRB1*1302 (DR6w19); Table XXIX, read-out: DR6w19 nM): 1.75 µM; IC50 (DRB5*0101 (DR2w2β2); Table XXIX, read-out: DR2w2β2 nM): 0.833 µM; IC50 (DRB1*1501 (DR2w2β1); Table XXIX, read-out: DR2w2β1 nM): 3.14 µM; IC50 (DRB1*0802 (DR8w2); Table XXIX, read-out: DR8w2 nM): 0.86 µM |
| 0.0017 | 0.3800 | 0.0090 | 0.0680 | 0.0010 | 0.0280 | 0.0050 | 3 | 3 | 4 | 0.4700 | 0.0220 |  | CC(C)C[C@H](NC(=O)[C@H](CO)NC(=O)[C@H](C)NC(=O)[C@H](CC(N)=O)NC(=O)[C@@H](NC(=O)[C@@H]1CCCN1C(=O)[C@H](CC(C)C)NC(=O)[C@H](Cc1ccc(O)cc1)NC(=O)[C@@H](NC(=O)[C@H](CC(C)C)NC(=O)[C@H](CCC(=O)O)NC(=O)[C@H](CC(C)C)NC(=O)[C@@H](N)CC(N)=O)[C@@H](C)O)[C@@H](C)O)C(=O)N[C@@H](CO)C(=O)N[C@@H](Cc1ccccc1)C(=O)O |  |
|  |  |  |  |  |  |  |  |  |  |  |  | 3 | CC[C@H](C)[C@H](NC(=O)[C@H](CCCNC(=N)N)NC(=O)[C@H](CCSC)NC(=O)[C@@H](N)CCC(N)=O)C(=O)N[C@@H](CC(C)C)C(=O)N[C@@H](CCCCN)C(=O)N[C@@H](CCC(=O)O)C(=O)N[C@H](C(=O)N[C@@H](CCC(=O)O)C(=O)N[C@@H](CC(C)C)C(=O)N[C@@H](CCCNC(=N)N)C(=O)N[C@@H](CCCCN)C(=O)N[C@H](C(=O)N[C@@H](CCCCN)C(=O)N[C@H](C(=O)O)C(C)C)C(C)C)[C@@H](C)O | DR6w19 binding data (DRB1*1302 (DR6w19); [3]): 0.0008; DR4w4 binding data (DRB1*0401 (DR4w4); [3]): −0.0055; DR2w2B2 binding data (DRB5*0101 (DR2w2β2); [3]): 0.5900; DR7 binding data (DRB1*0701 (DR7); [3]): 0.0130; DR3 binding data (DRB1*0301 (DR3); [3]): 0.3200; DR2w2B1 binding data (DRB1*1501 (DR2w2β1); Table XXa, DR 3a motif peptides, unit not given): 0.0150; DR5w11 binding data (DRB1*1101 (DR5w11); [3]): 0.0041; DR1 binding data (DRB1*0101 (DR1); [3]): 0.0419; DR8w2 binding data (DRB1*0802 (DR8w2); [3]): 0.0064 |

Source: patent US20040121946A9, “Inducing cellular immune responses to her2/neu using peptide and nucleic acid compositions” (priority 2002, published 2004)
